Like-named read-outs stand apart in the source and are kept apart here.
System: TEAD-dependent transcription
Test: TEAD-dependent transcription cell-based reporter assay (MSTO-211H+12XGTIIC luciferase)
Parameters: species or system human
Settings: MSTO-211H+12XGTIIC cell line, luciferase signal normalized to cell viability, 24 hours compound incubation, read-out: MSTO-211H GMean IC50 (uM) Cell Assay Reporter Cell Variant: TEAD
Excerpt: Determine Inhibitor Activity Against TEAD-Dependent Transcription in a Cell-Based Reporter Assay
The human mesothelioma cell line MSTO-211H was stably transfected with a pGL4.21 plasmid containing a synthetic promoter with 12 copies of the GTIIC TEAD response element that drives the expression of a luciferase reporter gene^1 using Lipofectamine transfection reagent (Thermo Fisher). Transfected cells were selected using puromycin and single cell clones expressing this construct (referred to as MSTO-211H+12XGTIIC) were generated by limiting dilution. MSTO-211H cells was characterized by genetic alterations in key components of the Hippo pathway^2, resulting in up-regulation of YAP/TEAD-mediated transcription. […] To evaluate TEAD inhibitors, the MSTO-211H+12XGTIIC cell line was seeded in a 96-well plate in 50 μL of culture media at 1×10^4 cells per well and incubated at 37° C. overnight. Serial dilutions of compounds (in total volume of 50 μL of culture media) were added to the cells and incubated at 37° C. for 24 hours. Each plate included cells treated with DMSO as high controls and cells treated with 20 μM of the reference compound K-975 (a known TEAD inhibitor)^3 as low controls. Cell viability was assayed by the addition of 25 μL of CellTiter-Fluor reagent (Promega) followed by a 30-minute incubation at 37° C. and quantification of the fluorescence signal (Ex400/Em505). Subsequently, luciferase expression was assayed by the addition of 25 μL of ONE-Glo reagent (Promega) followed by a 10-minute incubation at room temperature and quantification of the luminescence signal. The luminescence signal was normalized to the fluorescence signal to correct for any loss in cell viability over the 24-hour compound incubation period. The percentage of inhibition of normalized luminescence signal, indicative of compound-mediated inhibition of TEAD-dependent transcription, at individual compound concentrations relative to high and low controls was calculated. The data were analyzed by using nonlinear regression to generate IC50 values for individual compounds.

Row | SMILES | IC50 (Homo sapiens) | IC50
1 | C=CC(=O)N1CCC(C2c3cc(Oc4ccc(C(F)(F)F)cc4)ccc3CCN2C(=O)CCS(C)(=O)=O)C1 (single isomer, unassigned) [P-0217, 1-(3-(2-(3-(methylsulfonyl)propanoyl)-7-(4-(trifluoromethyl)phenoxy)-1,2,3,4-tetrahydroisoquinolin-1-yl)pyrrolidin-1-yl)prop-2-en-1-one] | 0.001 to 10 µM | 
2 | C=CC(=O)N1CCC(C2c3cc(Oc4ccc(C(F)(F)F)cc4)ccc3CCN2C(=O)CCS(C)(=O)=O)C1 (single isomer, unassigned) [P-0218, 1-(3-(2-(3-(methylsulfonyl)propanoyl)-7-(4-(trifluoromethyl)phenoxy)-1,2,3,4-tetrahydroisoquinolin-1-yl)pyrrolidin-1-yl)prop-2-en-1-one] |  | 0.001 to 10 µM
3 | NS(=O)(=O)N1CCc2ccc(Oc3ccc(C(F)(F)F)cc3)cc2C1 [P-0001, 7-(4-(trifluoromethyl)-phenoxy)-3,4-dihydroiso-quinoline-2(1H)-sulfon-amide] | 0.001 to 10 µM | 
4 | CCS(=O)(=O)N1CCc2ccc(Oc3ccc(C(F)(F)F)cc3)cc2C1 [P-0002, 2-(ethylsulfonyl)-7-(4-(trifluoromethyl)phen-oxy)-1,2,3,4-tetrahydro-isoquinoline] | 0.001 to 10 µM | 
5 | CCNC(=O)N1CCc2ccc(Oc3ccc(C(F)(F)F)cc3)cc2C1 [P-0003, N-ethyl-7-(4-(trifluoro-methyl)phenoxy)-3,4-dihydroisoquinoline-2(1H)-carboxamide] | 0.001 to 10 µM | 
6 | O=C(NC1CC1)N1CCc2ccc(Oc3ccc(C(F)(F)F)cc3)cc2C1 [P-0004, N-cyclopropyl-7-(4-(trifluoromethyl)phen-oxy)-3,4-dihydroiso-quinoline-2(1H)-carbox-amide] | 0.001 to 10 µM | 
7 | CS(=O)(=O)N1CCc2ccc(Oc3ccc(C(F)(F)F)cc3)cc2C1 [P-0005, 2-(methylsulfonyl)-7-(4-(trifluoromethyl)phen-oxy)-1,2,3,4-tetrahydro-isoquinoline] | 0.001 to 10 µM | 
8 | O=S(=O)(C1CC1)N1CCc2ccc(Oc3ccc(C(F)(F)F)cc3)cc2C1 [P-0006, 2-(cyclopropylsulfonyl)-7-(4-(trifluoromethyl)-phenoxy)-1,2,3,4-tetra-hydroisoquinoline] | 0.001 to 10 µM | 
9 | O=C(C(O)CO)N1CCc2ccc(Oc3ccc(C(F)(F)F)cc3)cc2C1 (stereo not shown) [P-0007, 2,3-dihydroxy-1-(7-(4-(trifluoromethyl)phen-oxy)-3,4-dihydroisoquin-olin-2(1H)-yl)propan-1-one] | 0.001 to 10 µM | 
10 | NC(=O)N1CCc2ccc(Oc3ccc(C(F)(F)F)cc3)cc2C1 [P-0010, 7-(4-(trifluoromethyl)-phenoxy)-3,4-dihydroiso-quinoline-2(1H)-carbox-amide] | 0.001 to 10 µM | 
11 | O=C(N1CCc2ccc(Oc3ccc(C(F)(F)F)cc3)cc2C1)C12CC1C2 (stereo not shown) [P-0011, bicyclo[1.1.0]butan-1-yl(7-(4-(trifluoromethyl)-phenoxy)-3,4-dihydro-isoquinolin-2(1H)-yl)-methanone] | 0.001 to 10 µM | 
12 | CNS(=O)(=O)N1CCc2ccc(Oc3ccc(C(F)(F)F)cc3)cc2C1 [P-0012, N-methyl-7-(4-(trifluoro-methyl)phenoxy)-3,4-dihydroisoquinoline-2(1H)-sulfonamide] | 0.001 to 10 µM | 
13 | CC(=O)N1CCc2ccc(Oc3ccc(C(F)(F)F)cc3)cc2C1 [P-0013, 1-(7-(4-(trifluorometh-yl)phenoxy)-3,4-dihydroisoquinolin-2(1H)-yl)ethan-1-one] | 0.001 to 10 µM | 
14 | CCC(=O)N1CCc2ccc(Oc3ccc(C(F)(F)F)cc3)cc2C1 [P-0014, 1-(7-(4-(trifluorometh-yl)phenoxy)-3,4-dihydroisoquinolin-2(1H)-yl)propan-1-one] | 0.001 to 10 µM | 
15 | O=C(C1CC1)N1CCc2ccc(Oc3ccc(C(F)(F)F)cc3)cc2C1 [P-0015, cyclopropyl(7-(4-(trifluoromethyl)phen-oxy)-3,4-dihydroiso-quinolin-2(1H)-yl)-methanone] | 0.001 to 10 µM | 
16 | CNC(=O)N1CCc2ccc(Oc3ccc(C(F)(F)F)cc3)cc2C1 [P-0016, N-methyl-7-(4-(trifluoro-methyl)phenoxy)-3,4-dihydroisoquinoline-2(1H)-carboxamide] | 0.001 to 10 µM | 

Reference: patent US20250129028A1, “COMPOUNDS AND METHODS FOR YAP/TEAD MODULATION AND INDICATIONS THEREFOR” (Opna Bio SA, priority 2022, published 2025)
